Data on 30 molecules can be found in PubChem BioAssay AID720589 (Broad Institute, 2013).

Activity calls are given as the source filed them.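 How the source made its calls: active means fitted curve drops below -35% activity at a concentration within twice the top valid tested dose; inconclusive means no clear call, values can overlap the other calls; inactive means signal rising instead of falling, among other cases.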

One test is described as follows: HepG2 hepatoma cell cytotoxicity, dose response, cytotoxicity control, CellTiter-Glo luminescence, cherry-pick, set 3 (AID 720589). Particulars: HepG2 viability, ATP luminescence (CellTiter-Glo), 72 h; at 0.011 µM; active compounds read low; 0% = untreated, negative = ATP loss. A general note: Cellular ATP, detected with luciferase, serves as a proxy for viable cell number.
For `COc1ccc(NC(=O)N(C)[C@H]2C[C@H]3c4[nH]c5ccccc5c4CCN3C(=O)[C@H]2CO)cc1`, the max activity is -20.5% (inactive).

In the case of `CC(=NNc1ccc2ccccc2n1)c1ccccc1O`, the max activity was -35.4% (inactive).

As for `COc1ccc(NS(=O)(=O)c2cc(NC(=O)CNC(=O)c3cccc(OC)c3)ccc2C)cc1`, the max activity was -35% (inactive).

Consider `COC(=O)c1c(C)[nH]c(/C=N/Nc2ccccc2)c1C`, for which the max activity was -17.5% (inactive).

Staying with this test, now noted: HepG2 viability, ATP luminescence (CellTiter-Glo), 72 h; at 0.035 µM; active compounds read low; 0% = untreated, negative = ATP loss.
As to `COC(=O)C[C@@H]1CC[C@@H]2[C@H](COc3ccc(NC(=O)c4ccc(F)c(F)c4)cc3C(=O)N2C)O1`, the max activity is -21% (inactive).

For `CCCn1c(C)cc(C(=O)CN2C(=O)c3ccccc3S2(=O)=O)c1C`, the max activity was 5.3% (inactive).

On to `COc1ccc(/C=C2\SC(=O)N(CCCC(=O)Nc3ccc(C(=O)O)cc3)C2=O)cc1`, for which the max activity is 21% (inactive).

With `Cc1c(Cl)cnc(NC(=O)COC(=O)c2ccc3ncsc3c2)c1Cl`, the max activity was -18.7% (inactive).

For the molecule `C[C@@H]1CN([C@H](C)CO)S(=O)(=O)c2ccc(C#Cc3ccncc3)cc2O[C@@H]1CN(C)C(=O)Nc1ccc2c(c1)OCO2`, the max activity was -31.9% (inactive).

`CN1c2ccc(-c3ccc(C#N)cc3)cc2[C@H]2[C@H](CCN2S(=O)(=O)c2cccc(F)c2)[C@H]1CO`: the max activity is -29.8% (inactive).

Staying with this test, now noted: HepG2 viability, ATP luminescence (CellTiter-Glo), 72 h; at 0.1 µM; active compounds read low; 0% = untreated, negative = ATP loss.
With `COC(=O)C[C@@H]1CC[C@@H]2[C@@H](COc3ccc(NC(=O)Nc4cccc(C#N)c4)cc3C(=O)N2C)O1`, the max activity is -8.7% (inactive).

Still in this test, the particulars now being: HepG2 viability, ATP luminescence (CellTiter-Glo), 72 h; at 0.3 µM; active compounds read low; 0% = untreated, negative = ATP loss.
As for `CC(C)CC(NC(=O)c1cccs1)c1nnc(SCc2ccc(Cl)c(Cl)c2)n1C` (stereo not given), the max activity was -28.1% (inactive).

With `COC(=O)C[C@H]1CC[C@H]2[C@@H](COc3ccc(NC(=O)Nc4cccc(Cl)c4)cc3C(=O)N2C)O1`, the max activity was -27.3% (inactive).

Turning to `COc1ccc(/C=C2\Oc3ccccc3C2=O)cc1`, the max activity is 21% (inactive).

Turning to `C=CCn1c(O)c(N=Nc2ccccc2)c2ccccc21`, the max activity was -21.6% (inactive).

The test is the same for the next values; noted with them: HepG2 viability, ATP luminescence (CellTiter-Glo), 72 h; at 0.35 µM; active compounds read low; 0% = untreated, negative = ATP loss.
`COC(=O)C[C@@H]1CC[C@H]2[C@H](COc3ccc(NC(=O)Nc4cc(C)cc(C)c4)cc3C(=O)N2C)O1`: the max activity is 15% (inactive).

The test is the same for the next values; noted with them: HepG2 viability, ATP luminescence (CellTiter-Glo), 72 h; at 0.9 µM; active compounds read low; 0% = untreated, negative = ATP loss.
Consider `COC(=O)C[C@@H]1CC[C@@H]2[C@H](COc3ccc(NC(=O)Nc4cccc(Cl)c4)cc3C(=O)N2C)O1`, for which the max activity was -25.8% (inactive).

The test is the same for the next values; noted with them: HepG2 viability, ATP luminescence (CellTiter-Glo), 72 h; at 2.85 µM; active compounds read low; 0% = untreated, negative = ATP loss.
`COc1ccc(OC)c(-c2nnc3n2N=C(c2ccc(OC)c(OC4CCOC4)c2)CS3)c1` (stereo not given): the max activity was -28.2% (inactive).

With `CCCc1nc2ccc(NC(=O)c3cccs3)cc2c(=O)n1Cc1ccccc1Cl`, the max activity is -32.5% (inactive).

Turning to `O=c1[nH]c(=O)n([C@H]2C[C@H](O)[C@@H](CO)O2)cc1F`, the max activity is -50.3% (inactive).

For the molecule `COc1ccc(Nc2oc(COc3ccccc3OC)nc2C#N)cc1`, the max activity was -51% (inactive).

For the molecule `O=C(O)c1ccccc1C(=O)Nc1ccc(Oc2ccc3ccccc3c2)cc1`, the max activity was -28.2% (inactive).

The same test, now with this note: HepG2 viability, ATP luminescence (CellTiter-Glo), 72 h; at 8 µM; active compounds read low; 0% = untreated, negative = ATP loss.
Consider `O=C(Nc1cccc(Oc2ccc3c(c2)C(=O)NC3=O)c1)c1cccs1`, for which the max activity is -36% (inactive).

For the molecule `COC(=O)C[C@@H]1CC[C@@H]2[C@@H](COc3ccc(NC(=O)Nc4cccc(Cl)c4)cc3C(=O)N2C)O1`, the max activity is -33.7% (inactive).

In the case of `CCOc1cc2[nH]c(=S)n(Cc3ccc(C(=O)N4CCN(C)CC4)cc3)c(=O)c2cc1OCC`, the max activity is -29.8% (inactive).

Staying with this test, now noted: HepG2 viability, ATP luminescence (CellTiter-Glo), 72 h; at 26 µM; active compounds read low; 0% = untreated, negative = ATP loss.
Turning to `CCC1=Nc2cc(C(=O)NCC3CCCO3)ccc2Sc2ccc(Br)cc21` (stereo not given), the max activity was -32.3% (inactive).

As for `CC1(CCc2ccccc2)NC(=O)N(CC(=O)N2CC(=O)Nc3ccccc32)C1=O` (stereo not given), the max activity was -19.7% (inactive).

Take `CCOc1ccc(C(c2c(NC(=O)c3ccccc3)sc(C)c2C)N2CCN(CCO)CC2)cc1` (stereo not given): the max activity was -11.9% (inactive).

Regarding `Cc1ccc(/C=N/Nc2ccc3ccccc3n2)o1`, the max activity was -46.4% (inactive).

As to `COC(=O)Cc1[nH]n(-c2nc3ccccc3s2)c(=O)c1C(C)=Nc1ccc(OC)cc1`, the max activity is -20.2% (inactive).
